{
  "source": "patent US8399430B2",
  "about": "“Alkylated semi synthetic glycosaminoglycosan ethers, and methods for making and using thereof” (University of Utah Research Foundation, priority 2008, dated 2013)",
  "key": {"P-Selectin/PSGL": {"target": "T1, P-Selectin/PSGL (Homo sapiens, UniProt P16109)", "T1 construct": "purchased R&D Systems (Minneapolis, Minn.)", "T1 sequence (P16109 with tags, fused parts or gaps limits assumed)": "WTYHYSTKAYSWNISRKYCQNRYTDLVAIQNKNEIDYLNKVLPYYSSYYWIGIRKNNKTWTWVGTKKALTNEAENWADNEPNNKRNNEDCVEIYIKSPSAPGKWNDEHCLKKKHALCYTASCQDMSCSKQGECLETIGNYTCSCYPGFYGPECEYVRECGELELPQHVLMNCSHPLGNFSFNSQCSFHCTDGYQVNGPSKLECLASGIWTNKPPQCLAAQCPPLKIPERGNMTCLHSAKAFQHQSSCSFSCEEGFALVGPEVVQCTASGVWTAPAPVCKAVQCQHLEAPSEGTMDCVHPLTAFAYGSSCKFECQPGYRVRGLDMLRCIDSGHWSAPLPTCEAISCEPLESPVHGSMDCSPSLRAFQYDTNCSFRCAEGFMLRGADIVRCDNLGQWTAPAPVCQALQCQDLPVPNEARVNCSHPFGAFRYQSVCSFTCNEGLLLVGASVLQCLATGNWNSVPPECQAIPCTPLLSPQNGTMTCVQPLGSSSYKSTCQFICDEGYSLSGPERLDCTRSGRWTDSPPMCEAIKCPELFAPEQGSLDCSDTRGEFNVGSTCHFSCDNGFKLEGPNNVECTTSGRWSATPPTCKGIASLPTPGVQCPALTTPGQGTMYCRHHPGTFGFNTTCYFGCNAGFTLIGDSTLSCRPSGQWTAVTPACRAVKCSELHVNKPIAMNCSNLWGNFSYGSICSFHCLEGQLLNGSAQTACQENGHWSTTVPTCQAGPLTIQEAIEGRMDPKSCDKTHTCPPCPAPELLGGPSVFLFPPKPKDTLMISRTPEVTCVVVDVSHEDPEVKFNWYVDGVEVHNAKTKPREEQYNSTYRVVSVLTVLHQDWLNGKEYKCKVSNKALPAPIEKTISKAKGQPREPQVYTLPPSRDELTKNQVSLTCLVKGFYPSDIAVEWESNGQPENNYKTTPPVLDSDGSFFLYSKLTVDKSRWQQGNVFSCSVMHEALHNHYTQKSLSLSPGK", "experiment": "U937 monocyte binding to P-selectin (cell binding assay)", "settings": "Table 2; U937 binding to P-selectin-Fc", "procedure": "(§1) Cell Binding Assays. The effect of SAGEs on binding of U937 monocytes to P-selectin or RAGE was studied in high-bind micro plates coated with 8 μg/ml protein A ([…]) in 0.2 M carbonate-bicarbonate buffer (pH 9.4). Plates were washed with phosphate buffered saline containing 1% BSA (PBS-BSA), and P-selectin-Fc or RAGE-Fc chimera (50 μL containing 1 μg) was added to each well and incubated for 2 h at room temperature or overnight at 4° C., respectively. Following incubation, wells were washed twice with PBS-BSA. […] As a negative control, 50 μL of 10 mM EDTA was added to select wells to prevent cell binding through sequestration of calcium. At the end of the incubation period, 50 μL of U937 cells (10^5 cells/well, calcein-labeled according to manufacturer's instructions) were added to each well and plates were incubated an additional 30 min at room temperature. The wells were then washed thrice with PBS, and bound cells were lysed by addition of 100 μL of Tris-TritonX-100 containing buffer. Fluorescence was measured on a microplate reader using excitation of 494 nm and emission of 517 nm."}, "RAGE/Mac-1": {"target": "T2, RAGE/Mac-1 (Homo sapiens, UniProt Q15109)", "T2 construct": "purchased R&D Systems (Minneapolis, Minn.)", "T2 sequence (Q15109 with tags, fused parts or gaps limits assumed)": "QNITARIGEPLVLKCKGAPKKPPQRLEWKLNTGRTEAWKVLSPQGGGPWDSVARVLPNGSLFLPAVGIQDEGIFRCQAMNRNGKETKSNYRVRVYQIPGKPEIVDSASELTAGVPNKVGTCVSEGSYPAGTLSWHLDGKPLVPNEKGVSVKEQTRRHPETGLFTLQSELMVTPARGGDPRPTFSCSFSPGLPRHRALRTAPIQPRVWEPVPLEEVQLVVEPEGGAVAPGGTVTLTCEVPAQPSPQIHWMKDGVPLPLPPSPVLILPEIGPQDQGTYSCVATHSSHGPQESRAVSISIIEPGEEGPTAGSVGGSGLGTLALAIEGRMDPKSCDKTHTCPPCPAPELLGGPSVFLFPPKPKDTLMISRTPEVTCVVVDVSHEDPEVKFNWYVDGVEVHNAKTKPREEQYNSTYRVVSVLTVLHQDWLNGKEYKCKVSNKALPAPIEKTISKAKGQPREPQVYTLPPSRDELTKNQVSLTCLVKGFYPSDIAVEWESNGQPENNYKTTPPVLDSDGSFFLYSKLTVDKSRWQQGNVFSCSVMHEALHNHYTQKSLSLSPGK", "experiment": "U937 monocyte binding to RAGE (cell binding assay)", "settings": "Table 2; U937 binding to RAGE-Fc", "procedure": "as §1"}, "RAGE/CML-BSA": {"target": "T3, RAGE/CML-BSA (Homo sapiens, UniProt Q15109)", "T3 construct": "purchased R&D Systems (Minneapolis, Minn.)", "T3 sequence (Q15109 with tags, fused parts or gaps limits assumed)": "as above", "experiment": "Solid phase binding assay, RAGE to CML-BSA", "settings": "Table 2", "procedure": "(§2) Solid phase binding assays. Solid phase binding assays were used to study the ability of SAGEs to inhibit RAGE binding to its ligands. For studies of the effect of SAGEs on RAGE binding to its ligands, polyvinyl 96-well plates were coated with 5 μg/well of specific ligand (CML-BSA, HMGB-I or S100b calgranulin). Plates were incubated overnight at 4° C. and washed thrice with PBS-0.05% Tween-20 (PBST). Separately, RAGE-Fc chimera (100 μL containing 0.5 μg/ml in PBST-0.1% BSA) was incubated with an equal volume of serially diluted SAGEs (0.001 to 1,000 μg/ml in PBST-BSA) overnight at 4° C. The following day, 50 μL of RAGE-SAGE mix was transferred to each respective ligand-coated well and incubated at 37° C. for 2 h. Wells were then washed four times with PBST. To detect bound RAGE, 50 μL of anti-RAGE antibody (0.5 μg/ml) was added to each well, the mixture was incubated for 1 h at room temperature, and wells were washed again four times with PBST. Horse-radish peroxidase conjugated secondary antibody (1:10,000 antibody dilution in PBST; 50 μL per well) was added, wells were incubated for 1 h at room temperature, and then washed once with PBST. A colorimetric reaction was initiated by addition of 50 μL of tetramethyl benzidine chromogen (TMB single solution chromogen) and terminated after 15 min by addition of 50 μL of 1 N HCl. Absorbance at 450 nm was read using an automated microplate reader."}, "RAGE/S100B": {"target": "T4, RAGE/S100B (Homo sapiens, UniProt Q15109)", "T4 construct": "purchased R&D Systems (Minneapolis, Minn.)", "T4 sequence (Q15109 with tags, fused parts or gaps limits assumed)": "as above", "experiment": "Solid phase binding assay, RAGE to S100b calgranulin", "settings": "Table 2", "procedure": "as §2"}, "RAGE/HMGB1": {"target": "T5, RAGE/HMGB1 (Homo sapiens, UniProt Q15109)", "T5 construct": "purchased R&D Systems (Minneapolis, Minn.)", "T5 sequence (Q15109 with tags, fused parts or gaps limits assumed)": "as above", "experiment": "Solid phase binding assay, RAGE to HMGB-1 (amphoterin)", "settings": "Table 2", "procedure": "as §2"}, "human leukocyte elastase": {"target": "T6, human leukocyte elastase (Homo sapiens, UniProt P08246)", "T6 sequence (P08246 30-267)": "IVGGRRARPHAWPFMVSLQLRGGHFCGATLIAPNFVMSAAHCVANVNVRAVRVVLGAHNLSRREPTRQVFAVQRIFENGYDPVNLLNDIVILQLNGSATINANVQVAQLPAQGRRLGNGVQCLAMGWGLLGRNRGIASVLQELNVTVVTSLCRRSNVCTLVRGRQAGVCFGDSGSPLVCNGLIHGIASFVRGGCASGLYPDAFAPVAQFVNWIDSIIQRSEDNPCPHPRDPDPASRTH", "experiment": "Human leukocyte elastase activity assay, chromogenic substrate", "type": "biochemical", "settings": "Table 2", "description": "Enzymatic assays. […] Nat Biotech 26:669-675, 2008)."}, "Xa": {"tested_on": "Xa", "experiment": "Anti-Xa anticoagulant activity", "type": "biochemical"}, "IIa": {"tested_on": "IIa", "experiment": "Anti-IIa anticoagulant activity", "type": "biochemical"}, "[1]": {"target": "T7, Hageman factor (Factor XII) (Homo sapiens, UniProt P00748)", "T7 sequence (P00748 20-615)": "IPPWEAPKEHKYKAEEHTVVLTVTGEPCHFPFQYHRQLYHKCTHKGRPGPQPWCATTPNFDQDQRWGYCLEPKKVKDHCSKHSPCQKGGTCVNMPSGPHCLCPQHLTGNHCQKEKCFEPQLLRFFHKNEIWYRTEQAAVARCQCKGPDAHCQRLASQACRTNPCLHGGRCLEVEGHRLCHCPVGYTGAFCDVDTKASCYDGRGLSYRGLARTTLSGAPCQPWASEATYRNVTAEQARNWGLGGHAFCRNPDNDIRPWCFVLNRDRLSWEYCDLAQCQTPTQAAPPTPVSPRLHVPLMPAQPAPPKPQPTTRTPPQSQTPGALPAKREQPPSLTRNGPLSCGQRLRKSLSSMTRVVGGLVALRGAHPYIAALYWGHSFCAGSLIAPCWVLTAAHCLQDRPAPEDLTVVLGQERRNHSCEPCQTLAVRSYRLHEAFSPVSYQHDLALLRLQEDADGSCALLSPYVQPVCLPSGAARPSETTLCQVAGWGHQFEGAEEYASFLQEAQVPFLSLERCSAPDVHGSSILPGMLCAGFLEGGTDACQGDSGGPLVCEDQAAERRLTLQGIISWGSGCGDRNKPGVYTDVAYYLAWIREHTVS", "experiment": "Activation of Hageman factor (Factor XII) in pooled human plasma, amidolytic activity", "settings": "Table 2, table line reads IC50 values"}},
  "data": [
    {"substance": "Heparin [reference compound]", "values": [
      {"measurement": "P-Selectin/PSGL", "setting": "P-Selectin/PSGL", "result": 0.3, "unit": "µg/mL"},
      {"measurement": "RAGE/Mac-1", "setting": "RAGE/Mac-1", "result": 0.11, "unit": "µg/mL"},
      {"measurement": "RAGE/CML-BSA", "setting": "RAGE/CML-BSA", "result": 0.39, "unit": "µg/mL"},
      {"measurement": "RAGE/S100B", "setting": "RAGE/S100B", "result": 1.29, "unit": "µg/mL"},
      {"measurement": "RAGE/HMGB1", "setting": "RAGE/HMGB1", "result": 0.04, "unit": "µg/mL"},
      {"measurement": "Leukocyte Elastase", "setting": "human leukocyte elastase", "result": 0.21, "unit": "µg/mL"},
      {"measurement": "anti-Xa anticoagulant activity", "setting": "Xa", "result": 150, "unit": "U/mg"},
      {"measurement": "anti-IIa anticoagulant activity", "setting": "IIa", "result": 150, "unit": "U/mg"},
      {"measurement": "Hageman Factor", "setting": "[1]", "result": 0.4, "unit": "µg/mL"}
    ]}
  ]
}
